Measurements published in PubChem BioAssay (NCI).
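Protocol summary: plate cells (96-well), add compound at 5 concentrations, incubate 48 h, interpolate endpoints linearly. TGI is the concentration that stops growth completely.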

Legend:
Assay in all cases: inhibition of tumour cell growth, NCI panel, 48 h
SNB-75 CNS = test system: SNB-75 CNS
MALME-3M melanoma = test system: MALME-3M melanoma
HOP-62 NSCLC = test system: HOP-62 NSCLC
EKVX NSCLC = test system: EKVX NSCLC
SR leukemia = test system: SR leukemia
SF-295 CNS = test system: SF-295 CNS
M14 melanoma = test system: M14 melanoma
U251 CNS = test system: U251 CNS
HCT-15 colon = test system: HCT-15 colon
NCI/ADR-RES ovarian = test system: NCI/ADR-RES ovarian
DU-145 prostate = test system: DU-145 prostate
OVCAR-8 ovarian = test system: OVCAR-8 ovarian
SW-620 colon = test system: SW-620 colon

Compound | TGI (SNB-75 CNS) [µM] | TGI (MALME-3M melanoma) [µM] | TGI (HOP-62 NSCLC) [µM] | TGI (EKVX NSCLC) [µM] | TGI (SR leukemia) [µM] | TGI (SF-295 CNS) [µM] | TGI (M14 melanoma) [µM] | TGI (U251 CNS) [µM] | TGI (HCT-15 colon) [µM] | TGI (NCI/ADR-RES ovarian) [µM] | TGI (DU-145 prostate) [µM] | TGI (OVCAR-8 ovarian) [µM] | TGI (SW-620 colon) [µM]
Cc1ccc(S(=O)(=O)C2=c3ncccc3=C3C(=O)c4ccccc4C(=O)C32)cc1 (centres undefined) | > 100 | > 100 | 9.14 | > 100 | > 100 | > 100 | > 100 | > 100 | > 100 | > 100 | > 100 | > 100 | > 100
COC(CNC(=O)C(C)NC(=O)C(C)NC(=O)c1ccccc1)OC (centres undefined) | > 100 | > 100 |  | > 100 | > 100 | > 100 | > 100 | > 100 | > 100 | > 100 | > 100 | > 100 | > 100
CC(C)(C)OC(=O)C(C1NC(C(=O)O)C(C)(C)S1)N1C(=O)c2ccccc2C1=O (centres undefined) | > 100 | > 100 | > 100 | > 100 | > 100 | > 100 | > 100 | > 100 | > 100 | > 100 | > 100 | > 100 | > 100
COC(=O)C1=NN2c3ccccc3CN([C@@H](C)c3ccccc3)C(=O)[C@@H]2C1 |  | 62.8 | > 100 | > 100 | 82.9 | > 100 | 57.5 | > 100 | > 100 | 56.1 | > 100 | > 100 | > 100
CC(=O)OCCn1c(Cc2ccc([N+](=O)[O-])cc2)nn(C(C)=O)c1=O |  | > 100 |  | > 100 | > 100 | > 100 | > 100 | > 100 | > 100 | > 100 | > 100 | > 100 | > 100
COc1ccc(-c2nc3ccc(C)cc3o2)c(OC)c1 | 54.4 | 42.1 | > 56 | 63 | > 72.3 | 46.8 | 35.7 | 65 | 58.8 | 99.9 | 50.5 | 77.1 | > 86
C=CCC1(O)c2cccc(O)c2C(=O)c2c(O)cccc21 | 75.2 |  | > 100 | 92.2 | 44.7 | > 100 | 59.3 | 69.1 | 47.9 | 43 | > 100 | > 100 | > 100
C[C@H](CCc1nc(C#N)c(N)o1)[C@H]1CC[C@H]2[C@@H]3[C@@H](O)CC4C[C@@H](O)CC[C@]4(C)[C@H]3C[C@@H](O)[C@]12C (some centres undefined) | 54 | 29.3 | > 54.4 | 98.1 | > 61.8 | 53.2 | > 75.8 | 49.5 | > 93 | > 100 | > 76.3 | 41.7 | 55
O=C(c1nsc(Cl)c1Cl)N1CCCCC1 | > 100 | > 100 | > 100 | > 100 | > 100 | > 100 | > 100 | > 100 | > 100 | > 100 | > 100 | > 100 | > 100
CC(=O)OC1CC(OC2C(O)CC(OC3C(O)CC(OC4CCC5(C)C(CCC6C5CC(O)C5(C)C(C7=CC(=O)OC7)CCC65O)C4)OC3C)OC2C)OC(C)C1O (centres undefined) (tested in a mixture with another compound) | 0.191 | 0.0479 | 0.152 | 0.0381 | > 100 | 0.133 | 0.231 | 0.0801 | 0.107 | 0.0732 | 0.0377 | 0.129 | 0.268
Cc1cccc(C)c1NC(=S)/N=C/C1=C(O)c2ccccc2C1=O | 51.4 |  | > 100 | > 94.4 | 8.19 | > 100 | > 100 | > 100 | > 100 | > 100 | > 100 | > 100 | > 100
CC(C)CCNC(=O)c1ccc(CNC(=O)/C=C/c2ccc(-c3ccccc3[N+](=O)[O-])o2)cc1 | > 100 |  | 60.8 |  | > 100 | > 100 | > 100 | > 100 | > 100 | > 100 | > 100 | > 100 | > 100
CNC(Cc1ccccc1)c1cccc(OC)c1O (centres undefined) |  | > 100 | > 100 | > 100 | > 100 | > 100 | > 100 | > 100 | > 100 | > 100 | > 100 | > 100 | > 100
OC[C@H]1CC(c2nn[nH]n2)[C@H](O)[C@@H]1O (some centres undefined) | > 100 | > 100 | > 100 |  | > 100 | > 100 | > 100 | > 100 | > 100 | > 100 | > 100 | > 100 | > 100
CCCNc1[nH]c(C(C)=O)c(N)c1C(=S)Nc1ccccc1 | > 100 | 83.9 | > 100 | > 100 | > 100 | > 100 | 36.8 | > 100 | > 100 | > 100 | > 100 | > 100 | > 100
CC(=O)Oc1ccc(-c2cc3ccccc3oc2=O)cc1OC(C)=O | > 100 | > 100 | > 100 | > 100 | > 100 | 67.9 | > 100 | > 100 | > 100 | > 100 | > 100 | > 100 | > 100
CS(=O)(=O)C(=Cc1ccccc1Cl)S(C)(=O)=O | > 100 | > 100 | > 100 | > 100 | > 100 | > 46.4 | > 100 | > 100 | > 100 | > 100 | > 100 | > 100 | > 100
CNC(=O)N(CCC#N)CCN(CCN(C(=O)NC)c1ccccc1)C(=O)NC | > 100 | > 100 | > 100 | > 100 | > 100 | > 100 | > 100 | > 100 | > 100 | > 100 | > 100 | > 100 | > 100
